Data taken from article PMC7470151, “Synthesis and evaluation of 2,4,5-trisubstitutedthiazoles as carbonic anhydrase-III inhibitors” (Journal of Enzyme Inhibition and Medicinal Chemistry, 2020).

What was measured:
[1] = molecular target: T1, Bovine carbonic anhydrase, isozyme III (Bos taurus, UniProt Q3SZX4); assay: Carbonic anhydrase-III inhibition assay by size exclusion Hummel–Dreyer method (HDM) chromatography; type: binding; conditions: HDM size exclusion HPLC; 0.24 mM analyte in mobile phase; 10% acetonitrile, phosphate buffer pH 6.5; 37 °C; CA-III injected at three concentrations
T1 construct: purchased Biovar Ltd, Armenia
T1 sequence (Q3SZX4 1-260): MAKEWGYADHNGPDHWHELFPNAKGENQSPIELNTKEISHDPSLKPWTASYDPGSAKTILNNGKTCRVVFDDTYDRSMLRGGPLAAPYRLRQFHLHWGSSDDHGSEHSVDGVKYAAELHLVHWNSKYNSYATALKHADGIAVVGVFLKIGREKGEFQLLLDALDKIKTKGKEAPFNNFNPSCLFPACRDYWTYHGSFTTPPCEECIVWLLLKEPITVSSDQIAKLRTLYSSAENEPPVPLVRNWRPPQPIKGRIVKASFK
Procedure: HPLC screening was conducted on the LC-2010A HT HPLC system, coupled with column temperature controller, degasser, auto sampler, and isocratic elution system, LC-solution software (to calculate peak area), Shimadzu Corporation, Kyoto, Japan. Back pressure was maintained around 6 MPA. A Phenomenex BioSep-SEC s2000, 300 × 7.8 mm column was used for size exclusion chromatography.
Bovine carbonic anhydrase, isozyme III (Biovar Ltd, Armenia) was stored at 0 °C in refrigerator until use. Enzyme was left for few minutes at room temperature before analysis. HPLC-grade methanol and acetonitrile (Fisher Scientific, Loughborough, UK) were used without further purification. NaH2PO4.H2O (Gainland, Deeside, UK), HCl (Carlo Erba, Italy), NaOH (Lonver, UK), and deionised water were used for the preparation of mobile phase. All the required chemicals for the synthesis of target compounds (12–16b) were procured either from Fisher Scientific, Loughborough, UK or Sigma-Aldrich, St. Louis, MO.
Each target compounds (12–16b) was dissolved in a mixture of acetonitrile: phosphate buffer, pH 6.5 (1:9 v/v) to obtain a final concentration of 0.24 mM. Subsequently, filtration and degassing by sonication were conducted for the mobile phase. Three different enzyme (CA-III) concentrations of […] were prepared from the stock solution (containing 0.865 mg in 10 mL of distilled water) by subsequent dilution method and injected separately in each run in the chromatographic system. All samples were used in duplicate. Vanillic acid was used as a positive control, and toluene was used as a negative control.
The mobile phase used for analysis was chosen according to the optimised conditions obtained, where 10% of organic modifier, 30 mM phosphate buffer (pH = 6.5) and 37 °C temperature was used. Column was pre-equilibrated with the mobile phase for 50 min. The flow rate of mobile phase was maintained at 1 mL/min during the run time. A wavelength of 230 nm (λmax) was selected for the analysis of all the tested compounds.
CA-III inhibitory activities of all the 17 target compounds (12–16b) as shown in Table 1 were carried out by using size exclusion HDM chromatography. The HDM chromatography was preferred over colorimetric assay of CA inhibitors, due to the susceptibility of the colorimetric methods to the intrinsic acidic or alkaline properties of analytes (inhibitors), including the lower catalytic activity of CA-III in CO2 hydration. Moreover, in HDM chromatographic method, the dilution effect of the mobile phase not only provides comparatively larger space for interaction between the macromolecule (CA-III) and analytes, but also lowers the probability of self-aggregation of macromolecules[35–37]^,[41]. The HDM was further optimised prior to use, where mobile phase was buffered to maintain the pH = 6.5 to mimic the physiological condition and to minimise the intrinsic properties of analytes. Moreover, acetonitrile (10%) was used to facilitate the elution of analytes (inhibitors) from the hydrophobic column as well as to prevent the adhesion of macromolecule to the stationary phase of the column. A constant optimised temperature of 37 °C was maintained throughout the chromatographic run, as the increase in temperature could not only influence the protein-ligand interaction but also affect the longevity of the column.
The chromatographic analysis by HDM is basically based on the measurement of the intensity of the formation of vacancy (negative) peak due to the subtraction of CA-III bound portion of analytes from the mobile phase. This method is also independent of the enzyme catalytic activity, thereby considered as more sensitive method for the estimation of inhibitory activities of analytes as compared to the colorimetric assay[35–37]^,[41]. Thus, weak inhibitors created weak vacancy peaks independent of the enzyme concentrations. […]

| Ki [1] | melting point | Compound |
| --- | --- | --- |
| 81.2 µM | 163 °C | Nc1nc(C(=O)O)c(-c2ccc(Cl)c([N+](=O)[O-])c2)s1 [Compound 15a, 2-Amino-5-(4-chloro-3-nitrophenyl)thiazole-4-carboxylic acid] |
| > 500 µM | 239 °C | COC(=O)c1nc(NC(=O)c2ccc(OC)cc2)sc1-c1ccc(S(C)(=O)=O)cc1 [Compound 14b, Methyl-2-(4-methoxybenzamido)-5-(4-(methylsulfonyl)phenyl)thiazole-4-carboxylate] |
| 186 µM | 174 °C | COc1ccc(C(=O)Nc2nc(C(=O)O)c(-c3ccc(S(C)(=O)=O)cc3)s2)cc1 [Compound 14c, 2-(4-Methoxybenzamido)-5-(4-(methylsulfonyl)phenyl)thiazole-4-carboxylic acid] |
| > 500 µM |  | COC(=O)c1nc(N)sc1Cc1ccccc1 [Compound 16] |
| > 500 µM |  | COC(=O)c1nc(N)sc1-c1ccc(Cl)c([N+](=O)[O-])c1 [Compound 15] |
| > 500 µM | 226 °C | COC(=O)c1nc(NC(=O)Nc2ccccc2)sc1Cc1ccccc1 [Compound 16b, Methyl-5-benzyl-2-(3-phenylureido)thiazole-4-carboxylate] |
| 18.9 µM | 236 °C | Cc1ccc(-c2sc(N)nc2C(=O)O)cc1 [Compound 13a, 2-Amino-5-(p-tolyl)thiazole-4-carboxylic acid] |
| > 500 µM |  | COC(=O)c1nc(NC(=O)c2ccc([N+](=O)[O-])cc2)sc1-c1ccccc1 [Compound 12b, Methyl-2-(4-nitrobenzamido)-5-substituted-thiazole-4-carboxylate] |
| > 500 µM | 260 °C | COC(=O)c1nc(N)sc1-c1ccc(S(C)(=O)=O)cc1 [Compound 14, Methyl-2-amino-5-(4-(methylsulfonyl)phenyl)thiazole-4-carboxylate] |
| > 500 µM |  | Nc1nc(C(=O)O)c(Cc2ccccc2)s1 [Compound 16a] |
| 6.8 µM |  | COc1cc(C(=O)O)ccc1O [Vanillic acid, reference compound] |
| 174 µM | 226 °C | Cc1ccc(-c2sc(NC(=O)Nc3ccccc3)nc2C(=O)O)cc1 [Compound 13c, 2-(3-Phenylureido)-5-(p-tolyl)thiazole-4-carboxylic acid] |
| > 500 µM |  | COC(=O)c1nc(N)sc1-c1ccccc1 [Compound 12] |
| 0.5 µM |  | Nc1nc(C(=O)O)c(-c2ccccc2)s1 [Compound 12a, 2-amino-5-phenylthiazole-4-carboxylic acid] |
| > 500 µM | 147 °C | COC(=O)c1nc(NC(=O)Nc2ccccc2)sc1-c1ccc(C)cc1 [Compound 13b, Methyl-2-(3-phenylureido)-5-(p-tolyl)thiazole-4-carboxylate] |
| 86.6 µM | 238 °C | CS(=O)(=O)c1ccc(-c2sc(N)nc2C(=O)O)cc1 [Compound 14a, 2-Amino-5-(4-(methylsulfonyl)phenyl)thiazole-4-carboxylic acid] |
| > 500 µM | 143 °C | COC(=O)c1nc(NC(=O)Nc2ccccc2)sc1-c1ccc(S(C)(=O)=O)cc1 [Compound 14d, Methyl 5-(4-(methylsulfonyl)phenyl)-2-(3-phenylureido)thiazole-4-carboxylate] |
| > 500 µM | 201 °C | COC(=O)c1nc(N)sc1-c1ccc(C)cc1 [Compound 13, Methyl-2-amino-5-(p-tolyl)thiazole-4-carboxylate] |
